Data set [1] addresses soluble human BACE1 catalytic domain (Homo sapiens (Human), UniProt P56817). Briefly: BACE1 HTRF FRET Assay. Type of data set: biochemical. The settings on record: Ki calculated from IC50 using the Cheng-Prusoff equation. From the text:
A homogeneous time-resolved FRET assay can be used to determine IC50 values for inhibitors of the soluble human BACE1 catalytic domain. This assay monitors the increase of 620 nm fluorescence that resulted from BACE1 cleavage of an APPswedish APP^swe mutant peptide FRET substrate (QSY7-[…]-Europium-amide). This substrate contains an N-terminal QSY7 moiety that serves as a quencher of the C-terminal Europium fluorophore (620 nm Em). In the absence of enzyme activity, 620 nm fluorescence is low in the assay and increased linearly over 3 hours in the presence of uninhibited BACE1 enzyme Inhibition of BACE1 cleavage of the QSY7-APP^swe-Eu substrate by inhibitors is manifested as a suppression of 620 nm fluorescence.
Reactions are initiated by addition of 10 μl of 600 nM QSY7-APP^swe-Eu substrate (200 nM final) to give a final reaction volume of 30 μl in a 384 well Nunc HTRF plate. The reactions are incubated at 30° C. for 1.5 hours. The 620 nm fluorescence is then read on a Rubystar HTRF plate reader (BMG Labtechnologies) using a 50 millisecond delay followed by a 400 millisecond acquisition time window Inhibitor IC50 values are derived from non-linear regression analysis of concentration response curves.

Data set [2] deals with purified human autoBACE-2 (Homo sapiens (Human), UniProt Q9Y5Z0). In words: BACE-2 Assay (BACE-HTRF assay). Type of data set: biochemical. The settings on record: Ki calculated from IC50 using the Cheng-Prusoff equation; read-out: BACE2 Ki. As for the experimental part:
Inhibitor IC50s at purified human autoBACE-2 are determined in a time-resolved endpoint proteolysis assay that measures hydrolysis of the QSY7-[…]-Eu-amide FRET peptide substrate (BACE-HTRF assay). BACE-mediated hydrolysis of this peptide results in an increase in relative fluorescence (RFU) at 620 nm after excitation with 320 nm light Inhibitor compounds, prepared at 3× the desired final concentration in 1×BACE assay buffer (20 mM sodium acetate pH 5.0, 10% glycerol, 0.1% Brij-35) supplemented with 7.5% DMSO are pre-incubated with an equal volume of autoBACE-2 enzyme diluted in 1×BACE assay buffer (final enzyme concentration 1 nM) in black 384-well NUNC plates for 30 minutes at 30° C. […] DMSO is present at 5% final concentration in the assay. Following laser excitation of sample wells at 320 nm, the fluorescence signal at 620 nm is collected for 400 ms following a 50 μs delay on a RUBYstar HTRF plate reader (BMG Labtechnologies). Raw RFU data is normalized to maximum (1.0 nM BACE/DMSO) and minimum (no enzyme/DMSO) RFU values. IC50s are determined by nonlinear regression analysis (sigmoidal dose response, variable slope) of percent inhibition data with minimum and maximum values set to 0 and 100 percent respectively. Similar IC50s are obtained when using raw RFU data. The Ki values are calculated from the IC50 using the Cheng-Prusoff equation.

The next data set addresses human P-glycoprotein (Homo sapiens (Human), UniProt P08183). Briefly: Efflux by human P-glycoprotein (Pgp Mdr1 efflux ratio). Type of data set: in vitro ADME.

Sequence of purified human autoBACE-2 (Q9Y5Z0 63-473 limits assumed): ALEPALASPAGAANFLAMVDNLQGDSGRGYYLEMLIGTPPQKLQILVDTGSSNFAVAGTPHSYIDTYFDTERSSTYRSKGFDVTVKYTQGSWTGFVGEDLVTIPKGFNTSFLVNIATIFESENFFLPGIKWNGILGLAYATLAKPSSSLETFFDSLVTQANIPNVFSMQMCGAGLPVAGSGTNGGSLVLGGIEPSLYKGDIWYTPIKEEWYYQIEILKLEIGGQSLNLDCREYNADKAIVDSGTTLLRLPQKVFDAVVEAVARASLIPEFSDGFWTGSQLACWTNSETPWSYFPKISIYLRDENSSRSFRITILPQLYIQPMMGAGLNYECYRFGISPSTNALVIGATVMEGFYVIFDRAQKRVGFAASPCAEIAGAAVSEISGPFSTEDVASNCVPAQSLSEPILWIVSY
Sequence of soluble human BACE1 catalytic domain (P56817 75-416): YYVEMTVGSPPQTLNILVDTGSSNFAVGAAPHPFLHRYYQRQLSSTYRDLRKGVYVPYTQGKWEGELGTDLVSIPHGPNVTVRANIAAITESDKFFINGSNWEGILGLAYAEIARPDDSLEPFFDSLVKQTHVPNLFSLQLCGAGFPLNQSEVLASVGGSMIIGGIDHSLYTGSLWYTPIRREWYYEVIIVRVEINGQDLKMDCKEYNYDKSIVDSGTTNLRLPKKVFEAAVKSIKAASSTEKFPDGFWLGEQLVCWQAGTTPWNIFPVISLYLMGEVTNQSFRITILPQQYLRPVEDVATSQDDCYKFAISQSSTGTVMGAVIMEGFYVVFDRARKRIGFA
Sequence of human P-glycoprotein (P08183 whole entry): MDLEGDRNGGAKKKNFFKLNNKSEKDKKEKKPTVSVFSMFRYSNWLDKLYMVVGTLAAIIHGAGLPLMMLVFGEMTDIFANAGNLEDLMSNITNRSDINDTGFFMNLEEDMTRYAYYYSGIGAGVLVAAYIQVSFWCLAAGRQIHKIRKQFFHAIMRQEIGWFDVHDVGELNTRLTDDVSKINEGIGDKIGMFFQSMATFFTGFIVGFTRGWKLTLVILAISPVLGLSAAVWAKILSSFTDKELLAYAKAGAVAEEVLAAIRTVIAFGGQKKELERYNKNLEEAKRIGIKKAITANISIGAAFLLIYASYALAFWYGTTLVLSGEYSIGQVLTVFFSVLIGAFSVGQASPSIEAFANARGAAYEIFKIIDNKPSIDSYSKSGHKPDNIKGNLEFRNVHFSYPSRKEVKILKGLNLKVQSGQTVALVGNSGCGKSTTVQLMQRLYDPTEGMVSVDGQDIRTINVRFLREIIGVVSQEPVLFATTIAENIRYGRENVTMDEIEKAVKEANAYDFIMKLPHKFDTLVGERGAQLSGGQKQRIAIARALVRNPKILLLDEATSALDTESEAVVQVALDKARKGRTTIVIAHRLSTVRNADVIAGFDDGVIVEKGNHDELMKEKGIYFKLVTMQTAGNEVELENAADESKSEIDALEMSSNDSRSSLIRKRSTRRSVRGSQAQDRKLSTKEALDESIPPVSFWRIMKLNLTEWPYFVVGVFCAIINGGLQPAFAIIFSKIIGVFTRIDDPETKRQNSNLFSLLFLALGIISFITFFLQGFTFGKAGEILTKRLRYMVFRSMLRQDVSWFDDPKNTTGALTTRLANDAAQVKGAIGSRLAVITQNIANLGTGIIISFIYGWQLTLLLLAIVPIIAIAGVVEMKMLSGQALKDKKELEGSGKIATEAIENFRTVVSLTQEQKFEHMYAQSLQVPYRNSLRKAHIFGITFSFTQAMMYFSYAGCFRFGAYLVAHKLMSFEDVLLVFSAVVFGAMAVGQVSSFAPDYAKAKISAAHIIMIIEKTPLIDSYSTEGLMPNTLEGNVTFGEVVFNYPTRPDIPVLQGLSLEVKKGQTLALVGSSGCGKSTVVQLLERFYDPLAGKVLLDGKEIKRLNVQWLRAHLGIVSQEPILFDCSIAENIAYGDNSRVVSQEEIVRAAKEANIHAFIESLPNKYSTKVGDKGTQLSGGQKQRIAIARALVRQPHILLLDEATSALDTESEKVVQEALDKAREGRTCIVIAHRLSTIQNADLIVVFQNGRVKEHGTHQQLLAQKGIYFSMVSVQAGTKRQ

The term Ki denotes a measure of affinity in units of concentration, obtained from inhibition or displacement. Regarding `CN1C(=N)N[C@](C)(c2sc(-c3nnc(-c4ccc(Cl)cc4)o3)cc2Cl)CS1(=O)=O` [Example 16], the Ki in data set [1] was 0.0288 µM; in data set [2], 0.0138 µM. Besides, the “Pgp Mdr1 ER” value at human P-glycoprotein is listed as 1.1.
For `COc1ccc(-c2nnc(-c3cc(Cl)c([C@]4(C)CS(=O)(=O)N(C)C(=N)N4)s3)o2)cc1` [Example 17] the same measures were 0.0386 µM, 0.0346 µM and 1.0.
For `CN1C(=N)N[C@](C)(c2sc(-c3nnc(-c4ccc(C(F)(F)F)cc4)o3)cc2Cl)CS1(=O)=O` [Example 18], the Ki in data set [1] was 0.0589 µM; in data set [2] it was 0.155 µM. At human P-glycoprotein, the “Pgp Mdr1 ER” value worked out at 0.7.
The corresponding values for `CN1C(=N)N[C@](C)(c2sc(-c3nnc(-c4ccc(Cl)cc4)o3)cc2F)CS1(=O)=O` [Example 19] are 0.0319 µM, 0.0136 µM and 1.0.
On to `CN1C(=N)N[C@](C)(c2sc(-c3nnc(-c4ccnn4C)o3)cc2Cl)CS1(=O)=O` [Example 47], for which the Ki is 1.53 µM in data set [1] and 0.712 µM in data set [2].
For the molecule `CN1C(=N)N[C@](C)(c2sc(-c3nnc(C4CC4)o3)cc2Cl)CS1(=O)=O` [Example 48], the Ki in data set [1] is 0.882 µM; in data set [2], 0.116 µM.
The corresponding values for `CN1C(=N)N[C@](C)(c2cc(-c3nnc(-c4nccs4)o3)ccc2F)CS1(=O)=O` [Example 49] are 4 µM and 0.49 µM.
The corresponding values for `CN1C(=N)N[C@](C)(c2cc(-c3nnc(-c4cncs4)o3)ccc2F)CS1(=O)=O` [Example 50] are 9.92 µM and 4.22 µM.
The corresponding values for `CN1C(=N)N[C@](C)(c2cc(-c3nnc(-c4cscn4)o3)ccc2F)CS1(=O)=O` [Example 51] are 8.6 µM and 1.54 µM.
For the molecule `CN1C(=N)N[C@](C)(c2cc(-c3nnc(C4Cc5ccccc5C4)o3)ccc2F)CS1(=O)=O` [Example 52], the results for the inhibition constant Ki in data set [1] and in data set [2] were 7.69 µM and 2.68 µM, respectively.
Turning to `CN1C(=N)N[C@](C)(c2cc(-c3nnc(-c4ncco4)o3)ccc2F)CS1(=O)=O` [Example 53], the Ki in data set [1] was 3.42 µM; in data set [2] it was 0.186 µM.
As for `CN1C(=N)N[C@](C)(c2cc(-c3nnc(-c4cocn4)o3)ccc2F)CS1(=O)=O` [Example 54], the Ki is 7.55 µM in data set [1] and 1.69 µM in data set [2].
With `CN1C(=N)N[C@](C)(c2cc(-c3nnc(-c4ccon4)o3)ccc2F)CS1(=O)=O` [Example 55], the figures for the Ki in data set [1] and in data set [2] were 4.94 µM and 0.737 µM, respectively.
The corresponding values for `CC(C)c1ccc(-c2nnc(-c3cc(Cl)c([C@]4(C)CS(=O)(=O)N(C)C(=N)N4)s3)o2)cc1` [Example 56] are 0.359 µM and 0.889 µM.
For `CN1C(=N)N[C@](C)(c2sc(-c3nnc(-c4ccc(Cl)cc4F)o3)cc2Cl)CS1(=O)=O` [Example 57] the same measures were 0.0507 µM and 0.0168 µM.
For `CN1C(=N)N[C@](C)(c2sc(-c3nnc(-c4ccc5[nH]cnc5c4)o3)cc2Cl)CS1(=O)=O` [Example 58] the same measures were 0.964 µM and 1.3 µM.
For `CN1C(=N)N[C@](C)(c2sc(-c3nnc(-c4ccc(F)c(F)c4)o3)cc2Cl)CS1(=O)=O` [Example 59], the Ki was 0.118 µM in data set [1] and 0.0813 µM in data set [2].
The corresponding values for `CC(C)Oc1ccc(-c2nnc(-c3cc(Cl)c([C@]4(C)CS(=O)(=O)N(C)C(=N)N4)s3)o2)cc1` [Example 60] are 0.205 µM and 0.533 µM.
As to `CCCCOc1ccc(-c2nnc(-c3cc(Cl)c([C@]4(C)CS(=O)(=O)N(C)C(=N)N4)s3)o2)cc1` [Example 61], the inhibitory constant (Ki) in data set [1] is 0.1 µM; in data set [2], 0.258 µM.
As to `CCCOc1ccc(-c2nnc(-c3cc(Cl)c([C@]4(C)CS(=O)(=O)N(C)C(=N)N4)s3)o2)cc1` [Example 62], the Ki in data set [1] is 0.0842 µM; in data set [2], 0.313 µM.
For `CN1C(=N)N[C@](C)(c2sc(-c3nnc(-c4ccc(OCc5ccccc5)cc4)o3)cc2Cl)CS1(=O)=O` [Example 63] the same measures were 0.227 µM and 0.527 µM.
For `CCCCCOc1ccc(-c2nnc(-c3cc(Cl)c([C@]4(C)CS(=O)(=O)N(C)C(=N)N4)s3)o2)cc1` [Example 64] the same measures were 0.16 µM and 0.356 µM.
The corresponding values for `CN1C(=N)N[C@](C)(c2sc(-c3nnc(-c4ccc(C(F)(F)F)c(F)c4)o3)cc2Cl)CS1(=O)=O` [Example 65] are 0.156 µM and 0.366 µM.
Regarding `CN1C(=N)N[C@](C)(c2sc(-c3nnc(-c4ccc(C5(C#N)COC5)cc4)o3)cc2Cl)CS1(=O)=O` [Example 66], the Ki in data set [1] was 1.36 µM; in data set [2] it was 1.07 µM.
Consider `CN1C(=N)N[C@](C)(c2sc(-c3nnc(-c4ccc(C5CCC(F)(F)C5)cc4)o3)cc2Cl)CS1(=O)=O` (stereo partly shown) [Example 67], for which the values for the inhibition constant Ki in data set [1] and in data set [2] were 1.11 µM and 1.87 µM, respectively.
Regarding `CN1C(=N)N[C@](C)(c2sc(-c3nnc(-c4ccc(N5CCCCC5)cc4)o3)cc2Cl)CS1(=O)=O` [Example 68], the Ki in data set [1] was 5.36 µM; in data set [2] it was 2.99 µM.
For the molecule `CN1C(=N)N[C@](C)(c2sc(-c3nnc(-c4ccc(N5CCCC5=O)cc4)o3)cc2Cl)CS1(=O)=O` [Example 69], the Ki was 1.03 µM in data set [1] and 1.07 µM in data set [2].
For the molecule `CN1C(=N)N[C@](C)(c2sc(-c3nnc(-c4ccc(-n5cnnn5)cc4)o3)cc2Cl)CS1(=O)=O` [Example 70], the values for the Ki in data set [1] and in data set [2] were 0.179 µM and 1.35 µM, respectively.
The corresponding values for `CN1C(=N)N[C@](C)(c2sc(-c3nnc(-c4ccc(-n5cccn5)cc4)o3)cc2Cl)CS1(=O)=O` [Example 71] are 0.155 µM and 0.181 µM.
For the molecule `Cc1nc2cc(-c3nnc(-c4cc(Cl)c([C@]5(C)CS(=O)(=O)N(C)C(=N)N5)s4)o3)ccc2s1` [Example 72], the Ki is 0.422 µM in data set [1] and 1.15 µM in data set [2].
The corresponding values for `CN1C(=N)N[C@](C)(c2sc(-c3nnc(-c4ccc5scnc5c4)o3)cc2Cl)CS1(=O)=O` [Example 73] are 0.171 µM and 0.336 µM.
The corresponding values for `CN1C(=N)N[C@](C)(c2sc(-c3nnc(-c4ccc5c(c4)C(=O)CC5)o3)cc2Cl)CS1(=O)=O` [Example 74] are 0.887 µM and 1.99 µM.
For `CN1C(=N)N[C@](C)(c2sc(-c3nnc(-c4ccc(C(F)(F)F)cn4)o3)cc2Cl)CS1(=O)=O` [Example 75] the same measures were 0.165 µM and 0.303 µM.
As to `CN1C(=N)N[C@](C)(c2sc(-c3nnc(-c4ccc(-c5ccon5)cc4)o3)cc2Cl)CS1(=O)=O` [Example 76], the Ki in data set [1] is 0.108 µM; in data set [2], 0.243 µM.
On to `CN1C(=N)N[C@](C)(c2sc(-c3nnc(-c4ccc(-c5noc(C(F)(F)F)n5)cc4)o3)cc2Cl)CS1(=O)=O` [Example 77], for which the Ki is 0.258 µM in data set [1] and 1.28 µM in data set [2].
Turning to `CN1C(=N)N[C@](C)(c2sc(-c3nnc(-c4ccc(OC(F)(F)F)cc4)o3)cc2Cl)CS1(=O)=O` [Example 78], the values for the inhibition constant Ki in data set [1] and in data set [2] were 0.056 µM and 0.143 µM, respectively.
The corresponding values for `CN1C(=N)N[C@](C)(c2sc(-c3nnc(-c4ccc(OC(F)F)cc4)o3)cc2Cl)CS1(=O)=O` [Example 79] are 0.0516 µM and 0.132 µM.
For `COC(=O)Cc1ccc(-c2nnc(-c3cc(Cl)c([C@]4(C)CS(=O)(=O)N(C)C(=N)N4)s3)o2)cc1` [Example 80] the same measures were 0.138 µM and 0.671 µM.
For `CN1C(=N)N[C@](C)(c2sc3c(-c4cnn(-c5ccccc5)c4)cccc3c2F)CS1(=O)=O` [Example 81] the same measures were 1.46 µM and 0.337 µM.
Regarding `CN1C(=N)N[C@](C)(c2sc3c(-c4coc(-c5ccc(F)cc5)n4)cccc3c2F)CS1(=O)=O` [Example 82], the Ki in data set [1] was 4.89 µM; in data set [2], 2.94 µM.
With `CN1C(=N)N[C@](C)(c2sc3c(-c4cnc(-c5ccc(F)cc5)o4)cccc3c2F)CS1(=O)=O` [Example 83], the figures for the inhibitory constant (Ki) in data set [1] and in data set [2] were 3.18 µM and 3.31 µM, respectively.
For `CN1C(=N)N[C@](C)(c2sc(-c3cnn(-c4ccccc4)c3)cc2Cl)CS1(=O)=O` [Example 85] the same measures were 0.265 µM and 0.0279 µM.
